The results in this text go back to PubChem BioAssay AID248 (DTP/NCI, 2004).

Where “and” joins values, the source holds several entries; their conditions need not be identical. Equal values may be shown once. Inconclusive results and toxic doses are left out.

This test has as its system L1210 leukemia ip in BDF1 mice, survival T/C. The test can be described thus: NCI In Vivo Anticancer Drug Screen. Data for tumor model L1210 Leukemia (intraperitoneal) in B6D2F1 (BDF1) mice. To be noted: endpoint: mean survival time, higher = longer survival. The gist of the method: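 Transplantable tumor model; survival measured in treated vs vehicle control mice. Value = treated/control.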

[1] abbreviates: dose: 100.0 mg/kg/injection, schedule: Q01DX009 (ip), vehicle: Klucel (hydroxypropylcellulose) (HPC).
Where [2] appears, read: dose: 200.0 mg/kg/injection, schedule: Q01DX009 (ip), vehicle: Klucel (hydroxypropylcellulose) (HPC).
Where [3] appears, read: dose: 400.0 mg/kg/injection, schedule: Q01DX009 (ip), vehicle: Klucel (hydroxypropylcellulose) (HPC).
The mark [4] stands for this setting: dose: 100.0 mg/kg/injection, schedule: Q04DX002 (ip), vehicle: Klucel (hydroxypropylcellulose) (HPC).
Setting [5] is: dose: 100.0 mg/kg/injection, schedule: Q04DX003 (ip), vehicle: Klucel (hydroxypropylcellulose) (HPC).
Setting [6] is: dose: 200.0 mg/kg/injection, schedule: Q04DX002 (ip), vehicle: Klucel (hydroxypropylcellulose) (HPC).
[7] abbreviates: dose: 200.0 mg/kg/injection, schedule: Q04DX003 (ip), vehicle: Klucel (hydroxypropylcellulose) (HPC).
The mark [8] stands for this setting: dose: 400.0 mg/kg/injection, schedule: Q04DX002 (ip), vehicle: Klucel (hydroxypropylcellulose) (HPC).
Setting [9] is: dose: 400.0 mg/kg/injection, schedule: Q04DX003 (ip), vehicle: Klucel (hydroxypropylcellulose) (HPC).
Where [10] appears, read: dose: 100.0 mg/kg/injection, schedule: Q04DX002 (ip), vehicle: saline with Tween-80.
Where [11] appears, read: dose: 100.0 mg/kg/injection, schedule: Q04DX003 (ip), vehicle: saline with Tween-80.
Setting [12] is: dose: 200.0 mg/kg/injection, schedule: Q04DX003 (ip), vehicle: saline with Tween-80.
Where [13] appears, read: dose: 100.0 mg/kg/injection, schedule: Q01DX001 (ip), vehicle: saline.
Where [14] appears, read: dose: 200.0 mg/kg/injection, schedule: Q01DX001 (ip), vehicle: saline.
[15] abbreviates: dose: 400.0 mg/kg/injection, schedule: Q01DX001 (ip), vehicle: saline.
[16] abbreviates: dose: 100.0 mg/kg/injection, schedule: Q01DX001 (ip), vehicle: saline with Tween-80.
Setting [17] is: dose: 200.0 mg/kg/injection, schedule: Q01DX001 (ip), vehicle: saline with Tween-80.

As to `CCOc1cc(C=Nc2cc(Br)c(OC)c(Br)c2)ccc1N(CCCl)CCCl`, the T/C is 106 % of control (dose: 4.0 mg/kg/injection, schedule: Q01DX009 (ip), vehicle: carboxymethylcellulose (CMC)); 115 % of control (dose: 7.0 mg/kg/injection, schedule: Q01DX009 (ip), vehicle: carboxymethylcellulose (CMC)); 122 % of control (dose: 8.9 mg/kg/injection, schedule: Q01DX001 (ip), vehicle: carboxymethylcellulose (CMC)); 109 % of control (dose: 11.0 mg/kg/injection, schedule: Q01DX009 (ip), vehicle: carboxymethylcellulose (CMC)); 123 % of control (dose: 17.0 mg/kg/injection, schedule: Q01DX009 (ip), vehicle: carboxymethylcellulose (CMC)); 122 % of control (dose: 133.0 mg/kg/injection, schedule: Q01DX001 (ip), vehicle: carboxymethylcellulose (CMC)).

In the case of `Nc1ccn(C2OC(COC(=O)C34CC5CC(CC(C5)C3)C4)C(O)C2O)c(=O)n1` (stereo unspecified), the T/C is, setting by setting: (dose: 50.0 mg/kg/injection, schedule: Q01DX001 (ip), vehicle: other) 156 % of control and 170 % of control; (dose: 100.0 mg/kg/injection, schedule: Q01DX001 (ip), vehicle: other) 165 % of control and 248 % of control; (dose: 200.0 mg/kg/injection, schedule: Q01DX001 (ip), vehicle: other) 213 % of control and 300 % of control.

`COC(CO)C(O)C(O)C=O` (stereo unspecified): the T/C is, setting by setting: (dose: 100.0 mg/kg/injection, schedule: Q01DX009 (ip), vehicle: saline) 93 % of control; (dose: 200.0 mg/kg/injection, schedule: Q01DX009 (ip), vehicle: saline) 97 % of control; (dose: 400.0 mg/kg/injection, schedule: Q01DX009 (ip), vehicle: saline) 102 % of control.

As to `COc1ccc([N+](=O)[O-])cc1NC(=O)Nc1ccc(I)cc1`, the T/C was 103 % of control under setting [1], 95 % of control under setting [2] and 103 % of control under setting [3].

Regarding `COC(=O)CNC(=O)C1CSC(C)(C)N1` (stereo unspecified), the T/C is 100 % of control (dose: 100.0 mg/kg/injection, schedule: Q01DX001 (ip), vehicle: steriod suspending solution); 97 % of control (dose: 200.0 mg/kg/injection, schedule: Q01DX001 (ip), vehicle: steriod suspending solution); 100 % of control (dose: 400.0 mg/kg/injection, schedule: Q01DX001 (ip), vehicle: steriod suspending solution).

On to `c1ccc(Cn2ccc3ccncc32)cc1`, for which, where the note is “dose: 75.0 mg/kg/injection, schedule: Q01DX001 (ip), vehicle: other”, the T/C is 96 % of control.

Consider `Cc1cccc(NC(=O)Nc2ccccc2F)n1`, for which the T/C reads like this: (dose: 100.0 mg/kg/injection, schedule: Q01DX001 (ip), vehicle: Klucel (hydroxypropylcellulose) (HPC)) 96 % of control; under setting [1], 96 % of control; under setting [4], 94 % of control and 87 % of control; under setting [5], 99 % of control; (dose: 200.0 mg/kg/injection, schedule: Q01DX001 (ip), vehicle: Klucel (hydroxypropylcellulose) (HPC)) 91 % of control; under setting [2], 96 % of control and 88 % of control. Also, the T/C was 96 % of control and 91 % of control under setting [6]; 111 % of control under setting [7]; 105 % of control and 88 % of control under setting [3]; 87 % of control and 91 % of control under setting [8]; 97 % of control under setting [9].

In the case of `N#CNN=Nc1cc(Cl)c(Cl)c(Cl)c1`, the T/C is 101 % of control (dose: 12.0 mg/kg/injection, schedule: Q01DX009 (ip), vehicle: saline); 109 % of control (dose: 25.0 mg/kg/injection, schedule: Q01DX009 (ip), vehicle: saline); 105 % of control (dose: 25.0 mg/kg/injection, schedule: Q04DX003 (ip), vehicle: saline); 97 % of control and 104 % of control (dose: 50.0 mg/kg/injection, schedule: Q01DX009 (ip), vehicle: saline); 98 % of control (dose: 50.0 mg/kg/injection, schedule: Q04DX003 (ip), vehicle: saline); 91 % of control (dose: 100.0 mg/kg/injection, schedule: Q04DX003 (ip), vehicle: saline).

`CSc1ccc(NC(=O)Nc2ccc(F)cc2)cc1`: the T/C is 96 % of control under setting [1] and 97 % of control under setting [2].

`CC(=O)OC1CCC2(C)C3=CCC4(C)C(C(C)/C=C\C(C)C(C)C)CCC4C34C=CC2(C1)C1C(=O)OC(=O)C14` (stereo unspecified): the T/C by setting is: (dose: 25.0 mg/kg/injection, schedule: Q04DX002 (ip), vehicle: saline with Tween-80) 98 % of control; (dose: 50.0 mg/kg/injection, schedule: Q04DX002 (ip), vehicle: saline with Tween-80) 90 % of control; under setting [10], 94 % of control.

As for `N=C(N)C(N)=NCC(Br)CBr` (stereo unspecified), the T/C is 93 % of control (dose: 100.0 mg/kg/injection, schedule: Q04DX002 (ip), vehicle: saline) and 108 % of control (dose: 200.0 mg/kg/injection, schedule: Q04DX002 (ip), vehicle: saline).

For `N#CCCn1c(=S)sc2ccccc21`, the T/C was 103 % of control (dose: 50.0 mg/kg/injection, schedule: Q04DX003 (ip), vehicle: saline with Tween-80); 100 % of control under setting [11]; 106 % of control under setting [12].

With `Cc1ccccc1NC(=O)NCCCl`, the T/C runs as follows: under setting [11], 88 % of control; under setting [12], 88 % of control; (dose: 400.0 mg/kg/injection, schedule: Q04DX003 (ip), vehicle: saline with Tween-80) 98 % of control.

Regarding `CN(N)c1cc(=O)[nH]c(N)n1`, the T/C under setting [4] is 101 % of control, the T/C under setting [6] was 97 % of control and the T/C under setting [8] was 92 % of control.

In the case of `Cc1ccc(C)c2c1[nH]c1c(C)c3ccncc3c(C)c12`, the T/C is, setting by setting: (dose: 25.0 mg/kg/injection, schedule: Q01DX Z (ip), vehicle: saline) 103 % of control; (dose: 50.0 mg/kg/injection, schedule: Q01DX Z (ip), vehicle: saline) 103 % of control; under setting [13], 100 % of control; (dose: 100.0 mg/kg/injection, schedule: Q01DX Z (ip), vehicle: saline) 112 % of control; under setting [14], 96 % of control; under setting [15], 103 % of control.

For the compound `O=c1ccc([N+](=O)[O-])cn1Cc1ccccc1`, the T/C is, setting by setting: under setting [16], 114 % of control; (dose: 100.0 mg/kg/injection, schedule: Q01DX009 (ip), vehicle: saline with Tween-80) 106 % of control; under setting [17], 100 % of control; (dose: 200.0 mg/kg/injection, schedule: Q01DX009 (ip), vehicle: saline with Tween-80) 98 % of control; (dose: 400.0 mg/kg/injection, schedule: Q01DX001 (ip), vehicle: saline with Tween-80) 96 % of control; (dose: 400.0 mg/kg/injection, schedule: Q01DX009 (ip), vehicle: saline with Tween-80) 106 % of control.

On to `CC1CCOC1=O` (stereo unspecified), for which the T/C is 96 % of control (dose: 50.0 mg/kg/injection, schedule: Q01DX001 (ip), vehicle: saline); 107 % of control under setting [13]; 105 % of control under setting [14]; 96 % of control under setting [15].

As to `COc1cc(C2=N/C(=C\C=C\c3ccccc3)C(=O)O2)cc(OC)c1OC`, the T/C runs as follows: under setting [10], 95 % of control; (dose: 200.0 mg/kg/injection, schedule: Q04DX002 (ip), vehicle: saline with Tween-80) 95 % of control; (dose: 400.0 mg/kg/injection, schedule: Q04DX002 (ip), vehicle: saline with Tween-80) 95 % of control.

Turning to `Cc1coc2c1[C@@H](O)[C@]1(C)[C@@H](C)CC[C@H](O)[C@]1(O)C2`, the T/C is 97 % of control under setting [13] and 95 % of control under setting [14].

As for `O=C(C1=CCCC1)C1=CCCC1`, the T/C (dose: 50.0 mg/kg/injection, schedule: Q01DX001 (ip), vehicle: saline with Tween-80) was 99 % of control; the T/C under setting [16] is 105 % of control; the T/C under setting [17] was 99 % of control.

For `c1cc(N2CCOCC2)ccc1Cc1ccc(N2CCOCC2)cc1`, the T/C reads like this: under setting [1], 102 % of control; under setting [5], 93 % of control; under setting [2], 109 % of control; under setting [7], 101 % of control; under setting [9], 93 % of control.
